Molecules are shown by their SMILES.

This assay concerns MM.1S cells. Kind of assay: Proliferation inhibition (IC50) in multiple myeloma cells, cell viability with WST/CCK-8 reagent.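 Also: MM.1S B-lymphoblast cells at 15,000 per well in 100 µL serum-containing RPMI1640, experiment run more than three times.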 As to conditions: Homo sapiens, MM1.S, 72 h, read-out: IC50 (half inhibitory concentration). A general note: Tetrazolium assays rely on reduction of a dye to a coloured formazan, in cell work by metabolically active cells.
Method: Multiple myeloma cell line: MM.1S (B lymphoblast), purchased from ATCC (American Type Culture Collection). Culture medium was RPMI1640 supplemented with 10% FBS and 1% Penicillin-Streptomycin. The cells used were identified as correct cells by STR cells and negative for mycoplasma by routine inspections.
IC50 values of the compounds of the present disclosure were measured using Cell Titer Blue, Cell Titer GLO, or WST reagent from Promega Company. Assay details are as follows: Cells were seeded in 100 μL RPMI1640 complete medium containing serum at a density of 15,000 cells/well.
The experiment was repeated more than three times.
As for `CC1(C)[C@@H]2CC[C@@]1(C)[C@@H](NCc1ccc(CNc3cccc4c3C(=O)N(C3CCC(=O)NC3=O)C4=O)cc1)C2` (stereo partly drawn) [SIAIS1221173, 2-(2,6-dioxopiperidin-3-yl)-4-((4-((((1R,2S,4R)-1,7,7-trimethylbicyclo[2.2.1]heptan-2-yl)amino)methyl)benzyl)amino)isoindoline-1,3-dione], the IC50 was determined as 1.09 nM. `O=C1CCC(N2Cc3c(OCCCCCCCNC4CCCCC4)cccc3C2=O)C(=O)N1` (stereo not shown) [SIAIS1221187, 3-(4-((7-(cyclohexylamino)heptyl)oxy)-1-oxoisoindolin-2-yl)piperidine-2,6-dione]: the IC50 turned out to be 1.13 nM. `CC1(C)[C@@H]2CC[C@@]1(C)[C@@H](NCCCCCCCOc1cccc3c1CN(C1CCC(=O)NC1=O)C3=O)C2` (stereo partly drawn) [SIAIS1221189, 3-(1-oxo-4-((7-(((1R,2S,4R)-1,7,7-trimethylbicyclo[2.2.1]heptan-2-yl)amino)heptyl)oxy)isoindolin-2-yl)piperidine-2,6-dione]: the IC50 came out at 1.2 nM. Take `O=C1CCC(N2Cc3c(CCCCCCCCNC4CCCCC4)cccc3C2=O)C(=O)N1` (stereo not shown) [SIAIS1221193, 3-(4-(8-(cyclohexylamino)octyl)-1-oxoisoindolin-2-yl)piperidine-2,6-dione]: the IC50 stood at 0.854 nM. For `O=C1CCC(N2Cc3c(CCCCCCCNCC45CC6CC(CC(C6)C4)C5)cccc3C2=O)C(=O)N1` (stereo not shown) [SIAIS1222021, 3-(4-(7-(((adamantan-1-yl)methyl)amino)heptyl)-1-oxoisoindolin-2-yl)piperidine-2,6-dione] the value was 0.781 nM; for `O=C1CCC(N2Cc3c(NCc4ccc(CNC56CC7CC(CC(C7)C5)C6)cc4)cccc3C2=O)C(=O)N1` (stereo not shown) [SIAIS1222025, 3-(4-((4-(((adamantan-1-yl)amino)methyl)benzyl)amino)-1-oxoisoindolin-2-yl)piperidine-2,6-dione], 3.24 nM. For `CN(CCCCCCCCc1cccc2c1CN(C1CCC(=O)NC1=O)C2=O)C12CC3CC(CC(C3)C1)C2` (stereo not shown) [SIAIS1222031, 3-(4-(8-((adamantan-1-yl)(methyl)amino)octyl)-1-oxoisoindolin-2-yl)piperidine-2,6-dione] the value was 0.27 nM; for `O=C1CCC(N2C(=O)c3cccc(NCc4ccc(CNC56CC7CC(CC(C7)C5)C6)cc4)c3C2=O)C(=O)N1` (stereo not shown) [SIAIS1222035, 4-((4-(((adamantan-1-yl)amino)methyl)benzyl)amino)-2-(2,6-dioxopiperidin-3-yl)isoindoline-1,3-dione], 2.46 nM. For `O=C1CCC(N2C(=O)c3cccc(NCCCCCCNCC45CC6CC(CC(C6)C4)C5)c3C2=O)C(=O)N1` (stereo not shown) [SIAIS1222037, 4-((6-(((adamantan-1-yl)methyl)amino)hexyl)amino)-2-(2,6-dioxopiperidin-3-yl)isoindoline-1,3-dione] the value was 0.13 nM; for `O=C1CCC(N2C(=O)c3cccc(NCCCCCCCNC4CCCCC4)c3C2=O)C(=O)N1` (stereo not shown) [SIAIS1222039, 4-((7-(cyclohexylamino)heptyl)amino)-2-(2,6-dioxopiperidin-3-yl)isoindoline-1,3-dione], 0.326 nM; for `CC1(C)[C@@H]2CC[C@@]1(C)[C@@H](NCCCCCCCNc1cccc3c1C(=O)N(C1CCC(=O)NC1=O)C3=O)C2` (stereo partly drawn) [SIAIS1222041, 2-(2,6-dioxopiperidin-3-yl)-4-((7-(((1R,2S,4R)-1,7,7-trimethylbicyclo[2.2.1]heptan-2-yl)amino)heptyl)amino)isoindoline-1,3-dione], 0.383 nM. For the compound `O=C1CCC(N2Cc3c(NCCCCCCCCNC45CC6CC(CC(C6)C4)C5)cccc3C2=O)C(=O)N1` (stereo not shown) [SIAIS1222045, 3-(4-((8-((adamantan-1-yl)amino)octyl)amino)-1-oxoisoindolin-2-yl)piperidine-2,6-dione], the IC50 was 3.78 nM. Turning to `O=C1CCC(N2Cc3c(C#CCCCCCCCNC45CC6CC(CC(C6)C4)C5)cccc3C2=O)C(=O)N1` (stereo not shown) [SIAIS1222047, 3-(4-(9-((adamantan-1-yl)amino)non-1-yn-1-yl)-1-oxoisoindolin-2-yl)piperidine-2,6-dione], the IC50 is 13 nM. For `O=C1CCC(N2Cc3c(CCc4ccc(CNC56CC7CC(CC(C7)C5)C6)cc4)cccc3C2=O)C(=O)N1` (stereo not shown) [SIAIS1222051, 3-(4-(4-(((adamantan-1-yl)amino)methyl)phenethyl)-1-oxoisoindolin-2-yl)piperidine-2,6-dione] the value was 4.1 nM.

Consider `O=C1CCC(N2Cc3c(CCc4ccc(CNCC56CC7CC(CC(C7)C5)C6)cc4)cccc3C2=O)C(=O)N1` (stereo not shown) [SIAIS1222053, 3-(4-(4-((((adamantan-1-yl)methyl)amino)methyl)phenethyl)-1-oxoisoindolin-2-yl)piperidine-2,6-dione], for which the IC50 was 1.61 nM. For `CC1(C)[C@@H]2CC[C@@]1(C)[C@@H](NCc1ccc(CCc3cccc4c3CN(C3CCC(=O)NC3=O)C4=O)cc1)C2` (stereo partly drawn) [SIAIS1222055, 3-(1-oxo-4-(4-((((1R,2S,4R)-1,7,7-trimethylbicyclo[2.2.1]heptan-2-yl)amino)methyl)phenethyl)isoindolin-2-yl)piperidine-2,6-dione] the value was 0.239 nM.

As for `O=C1CCC(N2Cc3c(NCCCCCCNCC45CC6CC(CC(C6)C4)C5)cccc3C2=O)C(=O)N1` (stereo not shown) [SIAIS1222073, 3-(4-((6-(((adamantan-1-yl)methyl)amino)hexyl)amino)-1-oxoisoindolin-2-yl)piperidine-2,6-dione], the IC50 was determined as 1.26 nM. Consider `O=C1CCC(N2C(=O)c3cccc(NCCCCCCNC45CC6CC(CC(C6)C4)C5)c3C2=O)C(=O)N1` (stereo not shown) [SIAIS1222093, 4-((6-((adamantan-1-yl)amino)hexyl)amino)-2-(2,6-dioxopiperidin-3-yl)isoindoline-1,3-dione], for which the IC50 was 1.58 nM. For `O=C1CCC(N2C(=O)c3cccc(NCCCCCNC45CC6CC(CC(C6)C4)C5)c3C2=O)C(=O)N1` (stereo not shown) [SIAIS1222095, 4-((5-((adamantan-1-yl)amino)pentyl)amino)-2-(2,6-dioxopiperidin-3-yl)isoindoline-1,3-dione] the value was 1.1 nM; for `O=C1CCC(N2Cc3c(OCCCCCCNC45CC6CC(CC(C6)C4)C5)cccc3C2=O)C(=O)N1` (stereo not shown) [SIAIS1222163, 3-(4-((6-((adamantan-1-yl)amino)hexyl)oxy)-1-oxoisoindolin-2-yl)piperidine-2,6-dione], 2.11 nM. Turning to `O=C1CCC(N2Cc3c(OCCCCCCNCC45CC6CC(CC(C6)C4)C5)cccc3C2=O)C(=O)N1` (stereo not shown) [SIAIS1222165, 3-(4-((6-(((adamantan-1-yl)methyl)amino)hexyl)oxy)-1-oxoisoindolin-2-yl)piperidine-2,6-dione], the IC50 was found to be 0.204 nM. `O=C1CCC(N2Cc3c(OCCCCCCCCNC45CC6CC(CC(C6)C4)C5)cccc3C2=O)C(=O)N1` (stereo not shown) [SIAIS1222167, 3-(4-((8-((adamantan-1-yl)amino)octyl)oxy)-1-oxoisoindolin-2-yl)piperidine-2,6-dione]: the IC50 is 0.426 nM. Turning to `CN(CCCCCCCOc1cccc2c1CN(C1CCC(=O)NC1=O)C2=O)C12CC3CC(CC(C3)C1)C2` (stereo not shown) [SIAIS1222181, 3-(4-((7-((adamantan-1-yl)(methyl)amino)heptyl)oxy)-1-oxoisoindolin-2-yl)piperidine-2,6-dione], the IC50 is 0.052 nM. Next, `O=C1CCC(N2C(=O)c3cccc(NCCCCCCCNC4CC5(CCC5)C4)c3C2=O)C(=O)N1` (stereo not shown) [SIAIS1222189, 2-(2,6-dioxopiperidin-3-yl)-4-((7-(spiro[3.3]heptan-2-ylamino)heptyl)amino)isoindoline-1,3-dione]: 0.324 nM; `CC(NCCCCCCNc1cccc2c1C(=O)N(C1CCC(=O)NC1=O)C2=O)C12CC3CC(CC(C3)C1)C2` (stereo not shown) [SIAIS1222191, 4-((6-((1-(adamantan-1-yl)ethyl)amino)hexyl)amino)-2-(2,6-dioxopiperidin-3-yl)isoindoline-1,3-dione]: 2.22 nM.

Take `CC(NCCCCCCCNc1cccc2c1C(=O)N(C1CCC(=O)NC1=O)C2=O)C12CC3CC(CC(C3)C1)C2` (stereo not shown) [SIAIS1222193]: the IC50 is 2.69 nM. For `O=C1CCC(N2Cc3c(OCCCCCCCNC4CC5(CCC5)C4)cccc3C2=O)C(=O)N1` (stereo not shown) [SIAIS1224013, 3-(1-oxo-4-((7-(spiro[3.3]heptan-2-ylamino)heptyl)oxy)isoindolin-2-yl)piperidine-2,6-dione] the value was 0.534 nM; for `O=C1CCC(N2Cc3c(CCCCCCCNC45CC6CC(CC(C6)C4)C5)cccc3C2=O)C(=O)N1` (stereo not shown) [SIAIS1224041, 3-(4-(7-((adamantan-1-yl)amino)heptyl)-1-oxoisoindolin-2-yl)piperidine-2,6-dione], 1.11 nM. On to `O=C1CCC(N2Cc3c(CCCCCCNC45CC6CC(CC(C6)C4)C5)cccc3C2=O)C(=O)N1` (stereo not shown) [SIAIS1224043, 3-(4-(6-((adamantan-1-yl)amino)hexyl)-1-oxoisoindolin-2-yl)piperidine-2,6-dione], for which the IC50 worked out at 0.63 nM.

Regarding `O=C1CCC(N2Cc3c(NCc4ccc(CCNC56CC7CC(CC(C7)C5)C6)cc4)cccc3C2=O)C(=O)N1` (stereo not shown) [SIAIS1227027, 3-(4-((4-(2-((adamantan-1-yl)amino)ethyl)benzyl)amino)-1-oxoisoindolin-2-yl)piperidine-2,6-dione], the IC50 turned out to be 0.32 ± 0.09 nM. Next, `O=C1CCC(N2Cc3c(NCc4ccc(CCCNC56CC7CC(CC(C7)C5)C6)cc4)cccc3C2=O)C(=O)N1` (stereo not shown) [SIAIS1227077, 3-(4-((4-(3-((adamantan-1-yl)amino)propyl)benzyl)amino)-1-oxoisoindolin-2-yl)piperidine-2,6-dione]: 1.93 ± 0.31 nM. On to `O=C1CCC(N2Cc3c(OCc4ccc(CNC56CC7CC(CC(C7)C5)C6)cc4)cccc3C2=O)C(=O)N1` (stereo not shown) [SIAIS1228157, 3-(4-((4-(((adamantan-1-yl)amino)methyl)benzyl)oxy)-1-oxoisoindolin-2-yl)piperidine-2,6-dione], for which the IC50 is 0.28 nM. Next, `O=C1CCC(N2C(=O)c3cccc(OCc4ccc(CCNC56CC7CC(CC(C7)C5)C6)cc4)c3C2=O)C(=O)N1` (stereo not shown) [SIAIS1241167, 4-((4-(2-((adamantan-1-yl)amino)ethyl)benzyl)oxy)-2-(2,6-dioxopiperidin-3-yl)isoindoline-1,3-dione]: 1.95 nM.

Turning to `O=C1CCC(N2Cc3c(OCc4ccc(CCNC56CC7CC(CC(C7)C5)C6)cc4)cccc3C2=O)C(=O)N1` (stereo not shown) [SIAIS1241169, 3-(4-((4-(2-((adamantan-1-yl)amino)ethyl)benzyl)oxy)-1-oxoisoindolin-2-yl)piperidine-2,6-dione], the IC50 amounted to 0.123 nM.

Source of the values: patent US20230096517A1, “GLUTARIMIDE SKELETON-BASED COMPOUNDS AND APPLICATION THEREOF” (SHANGHAITECH UNIVERSITY, priority 2020, published 2023).
